Experimental data from patent publication US10583117B2, “Oxo-M and 4-PPBP induction of tenogenic differentiation of perivascular tendon stem cells” (The Trustees of Columbia University in the City of New York, priority 2016, dated 2020).
“Also recorded” adds a separate entry of the source.

Experiments:
[1] = tested on: CD146+ perivascular tendon stem/progenitor cells (PTSCs); assay type: cell-based, rat
[2] = tested on: FAK; experiment: Western blot, phosphorylation of FAK in PTSCs; assay type: cell-based, rat; details: 12 hours treatment in PTSCs
Procedure: (§1) Activation of FAK and ERK1/2 signaling by Oxo-M and 4-PPBP was further confirmed by western blot and siRNA knockdown (KD). […] With combined Oxo-M and 4-PPBP, both P-FAK and P-ERK1/2 were detected (FIG. 3A). […] In addition, siRNA KD of FAK and ERK1/2 were performed as described previously (Lee, et al., 2015, supra), which is hereby incorporated herein by reference in its entirety for all purposes.

[3] = tested on: FAK; experiment: Western blot, P-FAK in CD146- tendon cells; assay type: cell-based, rat; details: CD146− tendon cells (excluding PTSCs)
Procedure: as §1

[4] = tested on: fully transected rat patellar tendons; experiment: Healing of fully transected rat patellar tendon, delivery via fibrin glue; assay type: in vivo; details: for tendon healing, H&E staining: Oxo-M 1 mM, 4-PPBP 10 μM in fibrin; for alignment of collagen fibers (Picrosirius Red, automated digital image processing): n=6; for effect on induced tenogenic differentiation of PTSCs and tendon healing: overall statement
[5] = tested on: ERK1/2; experiment: Western blot, phosphorylation of ERK1/2 in PTSCs; assay type: cell-based, rat; details: 12 hours treatment in PTSCs
Procedure: as §1

SMILES: O=C(O)/C=C\C(=O)O.c1ccc(CCCCN2CCC(c3ccccc3)CC2)cc1 [4-PPBP, 4-phenyl-1-(4-phenylbutyl)-piperidine maleate]
- COL-I gene expression ([1]; maleate): elevated; also recorded: significantly increased
- COL-III gene expression ([1]; maleate): elevated; also recorded: significantly increased
- phosphorylation of FAK (P-FAK) [2]: resulted in phosphorylation
- P-FAK band [3]: no P-FAK band
- collagen fibers, polarized Picrosirius Red images ([4]; 1 week post-op): disrupted collagen structure
- tendon healing, H&E staining ([4]; 1 week post-op): disorganized scar-like tissue
- collagen fibers, polarized Picrosirius Red images ([4]; 2 weeks post-op): disrupted collagen structure
- collagen in healing zone, Masson's Trichrome staining ([4]; 2 weeks post-op): disrupted collagen structure
- tendon healing, H&E staining ([4]; 2 weeks post-op): scar-like healing
- alignment of collagen fibers (Picrosirius Red, automated digital image processing) [4]: disoriented fibers
- effect on induced tenogenic differentiation of PTSCs and tendon healing [4]: only minimal effect

SMILES: C[N+](C)(C)CC#CCN1CCCC1=O [Oxo-M, Oxotremorine methiodide]
- Scx gene expression [1]: significant increases; also recorded: significantly increased
- Tn-C gene expression [1]: significant increases; also recorded: significantly increased
- VIM gene expression [1]: significant increases; also recorded: significantly increased
- phosphorylation of FAK (P-FAK) [2]: resulted in phosphorylation
- phosphorylation of ERK1/2 (P-ERK1/2) [5]: resulted in phosphorylation
- P-FAK band [3]: no P-FAK band
- collagen fibers, polarized Picrosirius Red images ([4]; 1 week post-op): disrupted collagen structure
- tendon healing, H&E staining ([4]; 1 week post-op): disorganized scar-like tissue
- collagen fibers, polarized Picrosirius Red images ([4]; 2 weeks post-op): disrupted collagen structure
- collagen in healing zone, Masson's Trichrome staining ([4]; 2 weeks post-op): disrupted collagen structure
- tendon healing, H&E staining ([4]; 2 weeks post-op): scar-like healing
- alignment of collagen fibers (Picrosirius Red, automated digital image processing) [4]: disoriented fibers
- effect on induced tenogenic differentiation of PTSCs and tendon healing [4]: only minimal effect
